In assay [1] the target is DGKα (Homo sapiens (Human), UniProt P23743). The experiment in a line: biochemical. It is filed as biochemical.
The target in assay [2] is human DGKζ (Homo sapiens (Human), UniProt Q13574). Description: biochemical. It is filed as biochemical.
For assay [3], the system named is Human venous whole blood (IFN-γ). The experiment in a line: Human whole blood IFN-γ assay. The format is cell-based. Here is the method:
Assay 10: Human Whole Blood IFN-γ Assay
Human venous whole blood (22.5 μL per well), obtained from healthy donors, was pre-treated with compounds for one hour at 37° C. in a humidified 95% air/5% CO2 incubator. The blood was stimulated with 2.5 μL anti-human CD3 and anti-CD28 mAb at a final concentration of 1 μg/mL each for 24 hours at 37° C. IFN-γ in the supernatants was measured using AlphLISA kit (Cat #AL217).

[4] abbreviates: Homo sapiens, 24 h, human whole blood, anti-CD3 plus anti-CD28, 24 hours, read-out: INFg Whole Blood Normalized Agonist EC50.
Where [5] appears, read: Table A, liposome (LIPGLO) assay, read-out: DGKα.
[6] abbreviates: Table A, liposome (LIPGLO) assay, read-out: DGKζ.
[7] abbreviates: human whole blood IFN-γ, read-out: INFg Whole Blood.
Where [8] appears, read: liposome (LIPGLO) assay, read-out: DGKα LIPGLO IC50.
Where [9] appears, read: liposome (LIPGLO) assay, read-out: DGKζ LIPGLO IC50.
Setting [10] is: human whole blood, anti-CD3 plus anti-CD28, 24 hours, read-out: INFg Whole Blood Normalized Agonist EC50.

These results are taken from patent publication US11964973B2 (priority 2019, dated 2024).

Where two headings read alike, the source gives them in different places.

Chain of DGKα (P23743 whole entry, looked up): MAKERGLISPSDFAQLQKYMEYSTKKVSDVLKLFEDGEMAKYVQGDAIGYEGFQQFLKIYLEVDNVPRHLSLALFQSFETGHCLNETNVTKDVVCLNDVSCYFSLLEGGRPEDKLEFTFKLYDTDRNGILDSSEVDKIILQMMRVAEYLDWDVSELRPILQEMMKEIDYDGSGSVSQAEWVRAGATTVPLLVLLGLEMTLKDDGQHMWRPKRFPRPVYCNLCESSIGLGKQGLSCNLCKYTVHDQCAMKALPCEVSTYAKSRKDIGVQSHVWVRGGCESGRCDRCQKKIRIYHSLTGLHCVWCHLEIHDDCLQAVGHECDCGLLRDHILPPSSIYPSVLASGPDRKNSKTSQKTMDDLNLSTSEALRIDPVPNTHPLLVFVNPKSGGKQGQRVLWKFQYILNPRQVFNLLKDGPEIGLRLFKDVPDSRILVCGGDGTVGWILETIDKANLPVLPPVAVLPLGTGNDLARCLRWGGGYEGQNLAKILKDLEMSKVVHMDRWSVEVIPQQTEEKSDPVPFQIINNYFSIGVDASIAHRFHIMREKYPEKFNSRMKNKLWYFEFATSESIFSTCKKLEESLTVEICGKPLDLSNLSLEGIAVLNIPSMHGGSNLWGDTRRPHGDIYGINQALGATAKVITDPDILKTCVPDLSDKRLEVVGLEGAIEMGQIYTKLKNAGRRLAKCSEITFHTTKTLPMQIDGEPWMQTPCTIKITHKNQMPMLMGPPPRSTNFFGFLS
Chain of human DGKζ (Q13574 whole entry, looked up): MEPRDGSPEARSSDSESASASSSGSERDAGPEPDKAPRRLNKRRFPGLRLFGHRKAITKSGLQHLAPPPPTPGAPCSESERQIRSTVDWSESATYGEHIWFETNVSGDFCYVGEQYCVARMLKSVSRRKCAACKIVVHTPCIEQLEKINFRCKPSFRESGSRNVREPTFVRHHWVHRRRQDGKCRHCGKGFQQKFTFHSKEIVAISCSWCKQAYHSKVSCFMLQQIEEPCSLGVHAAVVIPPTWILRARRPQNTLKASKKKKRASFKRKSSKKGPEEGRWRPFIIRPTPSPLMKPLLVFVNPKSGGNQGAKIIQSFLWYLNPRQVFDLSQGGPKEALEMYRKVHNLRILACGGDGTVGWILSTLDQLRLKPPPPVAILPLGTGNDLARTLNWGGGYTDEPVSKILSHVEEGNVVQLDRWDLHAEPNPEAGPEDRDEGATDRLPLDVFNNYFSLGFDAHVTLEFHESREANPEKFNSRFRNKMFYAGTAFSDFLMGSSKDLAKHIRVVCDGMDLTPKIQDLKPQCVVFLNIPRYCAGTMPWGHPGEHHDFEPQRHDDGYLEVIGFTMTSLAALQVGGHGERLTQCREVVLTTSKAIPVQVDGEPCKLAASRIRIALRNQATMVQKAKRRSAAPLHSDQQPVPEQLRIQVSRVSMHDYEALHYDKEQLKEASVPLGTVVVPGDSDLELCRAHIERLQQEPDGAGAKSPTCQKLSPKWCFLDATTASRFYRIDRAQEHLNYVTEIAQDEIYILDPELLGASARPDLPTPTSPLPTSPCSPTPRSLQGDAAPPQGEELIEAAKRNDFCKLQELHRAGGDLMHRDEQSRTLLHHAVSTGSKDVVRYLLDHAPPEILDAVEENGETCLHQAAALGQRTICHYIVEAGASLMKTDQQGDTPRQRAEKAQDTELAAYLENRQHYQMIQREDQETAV

For `CCC(C)(C)c1ccc(O[C@H]2CCN(c3cc(=O)n(C)c4ccc(C#N)nc34)C[C@H]2C)cc1` [Example 169, 5-methyl-8-((3R,4S)-3-methyl-4-(4-(tert-pentyl)phenoxy)piperidin-1-yl)-6-oxo-5,6-dihydro-1,5-naphthyridine-2-carbonitrile], the IC50 in assay [1] (read-out: DGKα LIPGLO IC50) was 600 nM; in assay [2] (read-out: DGKζ LIPGLO IC50), 1.4 µM. Moreover, in assay [3] (setting [4]), the EC50 amounted to 1.7 µM.

As for `C[C@@H]1CN(c2c(C#N)c(=O)n(C)c3ccc(C#N)nc23)CC[C@@H]1Oc1ccc(C(F)(F)F)cc1` [Example 191, 5-methyl-8-((3R,4S)-3-methyl-4-(4-(trifluoromethyl)phenoxy)piperidin-1-yl)-6-oxo-5,6-dihydro-1,5-naphthyridine-2,7-dicarbonitrile], the IC50 was 1800 nM in assay [1] (setting [5]) and 8.6 µM in assay [2] (setting [6]). In addition, the EC50 in assay [3] (setting [7]) is 20 µM.

As to `C[C@@H]1CN(c2cc(=O)n(C)c3ccc(C#N)nc23)CC[C@@H]1Oc1cccc(C2CC2)c1` [Example 179, 8-((3R,4S)-4-(3-cyclopropylphenoxy)-3-methylpiperidin-1-yl)-5-methyl-6-oxo-5,6-dihydro-1,5-naphthyridine-2-carbonitrile], the results for the IC50 in assay [1] (setting [8]) and in assay [2] (setting [9]) were 69 nM and 1.2 µM, respectively. In addition, the EC50 in assay [3] (setting [4]) turned out to be 2.4 µM.

As for `CC[C@@H]1CN(c2cc(=O)n(C)c3ccc(C#N)nc23)CC[C@H]1Oc1ccc(OC(C)(C)C)cc1` (single isomer, unassigned) [Example 159], the IC50 is 130 nM in assay [1] (setting [8]) and 2.3 µM in assay [2] (setting [9]). The EC50 in assay [3] (setting [4]) came out at 4.2 µM.

Turning to `CC[C@@H]1CN(c2cc(=O)n(C)c3ccc(C#N)nc23)CC[C@H]1Oc1ccc(OC(C)(C)C)cc1` (single isomer, unassigned) [Example 160], the figures for the IC50 in assay [1] (setting [8]) and in assay [2] (setting [9]) were 1700 nM and 3.3 µM, respectively. In addition, in assay [3] (setting [10]), the EC50 came to 4.5 µM.

On to `Cn1c(=O)cc(N2CCC(Oc3nccc4cccnc34)CC2)c2nc(C#N)ccc21` [Example 74, 8-(4-((1,7-naphthyridin-8-yl)oxy)piperidin-1-yl)-5-methyl-6-oxo-5,6-dihydro-1,5-naphthyridine-2-carbonitrile], for which the IC50 in assay [1] (setting [8]) was found to be 2800 nM; in assay [2] (setting [9]) it was 3.3 µM. The EC50 in assay [3] (setting [4]) was 20 µM.

Turning to `CC(C)c1ccc(O[C@H]2CCN(c3cc(=O)n(C)c4ccc(C#N)nc34)C[C@H]2C)cc1` [Example 182, 8-((3R,4S)-4-(4-isopropylphenoxy)-3-methylpiperidin-1-yl)-5-methyl-6-oxo-5,6-dihydro-1,5-naphthyridine-2-carbonitrile], the IC50 in assay [1] (setting [8]) amounted to 1100 nM; in assay [2] (setting [9]), 1.8 µM. The EC50 in assay [3] (setting [10]) was 2.8 µM.

As for `CCCCc1ccc(OC2CCN(c3cc(=O)n(C)c4ccc(C#N)nc34)CC2)cc1` [Example 56, 8-(4-(4-butylphenoxy)piperidin-1-yl)-5-methyl-6-oxo-5,6-dihydro-1,5-naphthyridine-2-carbonitrile], the IC50 in assay [1] (setting [8]) is 840 nM; in assay [2] (setting [9]), 13 µM. The EC50 in assay [3] (setting [4]) worked out at 3.8 µM.

As to `Cc1cc(OC2CCN(c3cc(=O)n(C)c4ccc(C#N)nc34)CC2)nc(C)n1` [Example 70, 8-(4-((2,6-dimethylpyrimidin-4-yl)oxy)piperidin-1-yl)-5-methyl-6-oxo-5,6-dihydro-1,5-naphthyridine-2-carbonitrile], the figures for the IC50 in assay [1] (setting [8]) and in assay [2] (setting [9]) were 12000 nM and 11 µM, respectively. Moreover, the EC50 in assay [3] (setting [4]) was 20 µM.

`CC(C)c1cccc(O[C@@H]2CCN(c3cc(=O)n(C)c4ccc(C#N)nc34)C[C@H]2C)c1` [Example 122, 8-((3R,4R)-4-(3-isopropylphenoxy)-3-methylpiperidin-1-yl)-5-methyl-6-oxo-5,6-dihydro-1,5-naphthyridine-2-carbonitrile]: the IC50 in assay [1] (setting [8]) was determined as 17 nM; in assay [2] (setting [9]) it was 28 µM. Further, in assay [3] (setting [4]), the EC50 was found to be 5.8 µM.

`CC[C@@H]1CN(c2cc(=O)n(C)c3ccc(C#N)nc23)CC[C@H]1Oc1ccc(OC(C)(C)C)cc1` [Example 158, 8-((3R,4R)-4-(4-(tert-butoxy)phenoxy)-3-ethylpiperidin-1-yl)-5-methyl-6-oxo-5,6-dihydro-1,5-naphthyridine-2-carbonitrile]: the values for the IC50 in assay [1] (read-out: DGKα LIPGLO IC50) and in assay [2] (read-out: DGKζ LIPGLO IC50) were 360 nM and 1.9 µM, respectively. Besides, the EC50 in assay [3] (setting [4]) was 2 µM.

As for `CC[C@@H]1CN(c2cc(=O)n(C)c3ccc(C#N)nc23)CC[C@H]1Oc1cccc(C(F)(F)F)c1` (single isomer, unassigned) [Example 141], the figures for the IC50 in assay [1] (setting [8]) and in assay [2] (setting [9]) were 68 nM and 0.26 µM, respectively. The EC50 in assay [3] (setting [10]) worked out at 0.5 µM.

With `Cn1c(=O)cc(N2CCC(Oc3cnc4ccccc4n3)CC2)c2nc(C#N)ccc21` [Example 69, 5-methyl-6-oxo-8-(4-(quinoxalin-2-yloxy)piperidin-1-yl)-5,6-dihydro-1,5-naphthyridine-2-carbonitrile], the IC50 in assay [1] (setting [8]) came out at 5700 nM; in assay [2] (setting [9]) it was 1.4 µM. Moreover, the EC50 in assay [3] (setting [4]) was determined as 17 µM.

For `CC(C)c1ccc(O[C@@H]2CCN(c3cc(=O)n(C)c4ccc(C#N)nc34)C[C@H]2C)cc1` (single isomer, unassigned) [Example 96], the IC50 worked out at 57 nM in assay [1] (setting [8]) and 20 µM in assay [2] (setting [9]). For the same compound, in assay [3] (setting [10]), the EC50 turned out to be 2.6 µM.

As for `CC(C)c1ccc(O[C@H]2CCN(c3cc(=O)n(C)c4ccc(C#N)nc34)C[C@H]2C)cc1` (single isomer, unassigned) [Example 177], the IC50 in assay [1] (setting [8]) amounted to 140 nM; in assay [2] (setting [9]), 1.1 µM. Besides, the EC50 in assay [3] (setting [4]) amounted to 3.5 µM.

As for `C[C@@H]1CN(c2cc(=O)n(C)c3ccc(C#N)nc23)CC[C@H]1Oc1ccc(F)cc1C(F)(F)F` (single isomer, unassigned) [Example 118], the IC50 in assay [1] (setting [8]) was 250 nM; in assay [2] (setting [9]) it was 52 µM. The EC50 in assay [3] (setting [10]) is 4.7 µM.

In the case of `C[C@@H]1CN(c2cc(=O)n(C)c3ccc(C#N)nc23)CC[C@H]1Oc1ccc(C2CCCC2)cc1` (single isomer, unassigned) [Example 101], the IC50 in assay [1] (setting [8]) stood at 430 nM; in assay [2] (setting [9]), 6.8 µM. In assay [3] (setting [10]), the EC50 was 1.4 µM.

For `C[C@@H]1CN(c2cc(=O)n(C)c3ccc(C#N)nc23)CC[C@H]1Oc1ccc(F)cc1C(F)(F)F` (single isomer, unassigned) [Example 117], the IC50 came to 2000 nM in assay [1] (setting [8]) and 20 µM in assay [2] (setting [9]). Besides, the EC50 in assay [3] (setting [4]) came to 4.6 µM.

As to `CCCCCc1ccc(OC2CCN(c3cc(=O)n(C)c4ccc(C#N)nc34)CC2)cc1` [Example 62, 5-methyl-6-oxo-8-(4-(4-pentylphenoxy)piperidin-1-yl)-5,6-dihydro-1,5-naphthyridine-2-carbonitrile], the values for the IC50 in assay [1] (setting [8]) and in assay [2] (setting [9]) were 1500 nM and 5.2 µM, respectively. In assay [3] (setting [4]), the EC50 was 20 µM.

As to `C[C@@H]1CN(c2cc(=O)n(C)c3ccc(C#N)nc23)CC[C@H]1Oc1ccc(C(F)(F)F)cc1F` [Example 112, 8-((3R,4R)-4-(2-fluoro-4-(trifluoromethyl)phenoxy)-3-methylpiperidin-1-yl)-5-methyl-6-oxo-5,6-dihydro-1,5-naphthyridine-2-carbonitrile], the values for the IC50 in assay [1] (setting [8]) and in assay [2] (setting [9]) were 340 nM and 7.5 µM, respectively. Besides, the EC50 in assay [3] (setting [4]) came out at 4.1 µM.

Turning to `Cc1cccc(O[C@@H]2CCN(c3cc(=O)n(C)c4ccc(C#N)nc34)C[C@H]2C)c1` [Example 107, 5-methyl-8-((3R,4R)-3-methyl-4-(m-tolyloxy)piperidin-1-yl)-6-oxo-5,6-dihydro-1,5-naphthyridine-2-carbonitrile], the IC50 amounted to 130 nM in assay [1] (DGKα LIPGLO IC50) and 24 µM in assay [2] (DGKζ LIPGLO IC50). The EC50 in assay [3] (setting [4]) turned out to be 13 µM.

Turning to `Cn1c(=O)cc(N2CCC(Oc3ccc(Cc4ccccc4)cc3)CC2)c2nc(C#N)ccc21` [Example 55, 8-(4-(4-benzylphenoxy)piperidin-1-yl)-5-methyl-6-oxo-5,6-dihydro-1,5-naphthyridine-2-carbonitrile], the IC50 in assay [1] (setting [8]) stood at 950 nM; in assay [2] (setting [9]), 3.8 µM. Also, the EC50 in assay [3] (setting [4]) is 3.7 µM.

Consider `C[C@@H]1CN(c2c(C#N)c(=O)n(C)c3ccc(C#N)nc23)CC[C@@H]1Oc1ccc(C(F)(F)F)cc1` [Example 190, 5-methyl-8-((3R,4S)-3-methyl-4-(4-(trifluoromethyl)phenoxy)piperidin-1-yl)-6-oxo-5,6-dihydro-1,5-naphthyridine-2,7-dicarbonitrile], for which the IC50 is 2200 nM in assay [1] (setting [5]) and 3.1 µM in assay [2] (setting [6]). Besides, in assay [3] (setting [7]), the EC50 was 20 µM.

Consider `CCC(C)(C)c1ccc(O[C@@H]2CCN(c3cc(=O)n(C)c4ccc(C#N)nc34)C[C@H]2C)cc1` [Example 82, 5-methyl-8-((3R,4R)-3-methyl-4-(4-(tert-pentyl)phenoxy)piperidin-1-yl)-6-oxo-5,6-dihydro-1,5-naphthyridine-2-carbonitrile], for which the IC50 in assay [1] (read-out: DGKα LIPGLO IC50) was 30 nM; in assay [2] (read-out: DGKζ LIPGLO IC50), 3.9 µM. For the same compound, in assay [3] (setting [4]), the EC50 came to 0.65 µM.

As for `CC[C@@H]1CN(c2cc(=O)n(C)c3ccc(C#N)nc23)CC[C@H]1Oc1cccc(C(C)(C)C)c1` (single isomer, unassigned) [Example 198], the IC50 in assay [1] (setting [5]) came out at 160 nM; in assay [2] (setting [6]) it was 1.3 µM. Moreover, the EC50 in assay [3] (read-out: INFg Whole Blood, human whole blood IFN-γ) came out at 3.1 µM.

As to `Cn1c(=O)cc(N2CCC(Oc3ccc(Cl)cn3)CC2)c2nc(C#N)ccc21` [Example 67, 8-(4-((5-chloropyridin-2-yl)oxy)piperidin-1-yl)-5-methyl-6-oxo-5,6-dihydro-1,5-naphthyridine-2-carbonitrile], the IC50 was 1600 nM in assay [1] (setting [8]) and 7.1 µM in assay [2] (setting [9]). In assay [3] (setting [4]), the EC50 was determined as 2.7 µM.
